Values of other authors, collected in patent US20030170847A1, “Genes involved in isoprenoid compound production” (priority 2001, published 2003).

Legend:
[1] = test system: nonphotosynthetic bacterial CrtY-type of lycopene cyclases; conditions: Cunningham et al., The Plant Cell 1994
[2] = test system: CrtL-type of lycopene cyclases; conditions: Cunningham et al., The Plant Cell 1994

## CCN(CC)CCSc1ccc(Cl)cc1.Cl [CPTA, 2-(4-chlorophenylthio)-triethylamine hydrochloride]
[1]
  inhibition of CrtY-type of lycopene cyclases: not
[2]
  inhibition of CrtL-type of lycopene cyclases: specifically inhibit

## CCN(CC)CCOc1ccc(C)cc1.Cl [MPTA, 2-(4-methylphenoxy)-triethylamine hydrochloride]
[1]
  inhibition of CrtY-type of lycopene cyclases: not
[2]
  inhibition of CrtL-type of lycopene cyclases: specifically inhibit
